# Data published in patent US20150005281A1, “PYRIMIDINE-2,4-DIAMINE DERIVATIVES AS KINASE INHIBITORS” (Cellzome Limited, priority 2011, published 2015).
# How the values were obtained:
# Assay type in all cases: binding
# [1] = biological target: T1, JAK3 (Homo sapiens, UniProt P52333); assay: Kinobeads assay with immunodetection, JAK3; conditions: for IC50: Kinobeads assay, mixed Molt4/Ramos lysate, read-out: Inhibition values (IC50) JAK3
# T1 construct: endogenous in cells; host or cells: Molt4 (ATCC CRL-1582) and Ramos (ATCC CRL-1596) cells; mixed lysate 1:2
# T1 sequence (P52333 1-1124): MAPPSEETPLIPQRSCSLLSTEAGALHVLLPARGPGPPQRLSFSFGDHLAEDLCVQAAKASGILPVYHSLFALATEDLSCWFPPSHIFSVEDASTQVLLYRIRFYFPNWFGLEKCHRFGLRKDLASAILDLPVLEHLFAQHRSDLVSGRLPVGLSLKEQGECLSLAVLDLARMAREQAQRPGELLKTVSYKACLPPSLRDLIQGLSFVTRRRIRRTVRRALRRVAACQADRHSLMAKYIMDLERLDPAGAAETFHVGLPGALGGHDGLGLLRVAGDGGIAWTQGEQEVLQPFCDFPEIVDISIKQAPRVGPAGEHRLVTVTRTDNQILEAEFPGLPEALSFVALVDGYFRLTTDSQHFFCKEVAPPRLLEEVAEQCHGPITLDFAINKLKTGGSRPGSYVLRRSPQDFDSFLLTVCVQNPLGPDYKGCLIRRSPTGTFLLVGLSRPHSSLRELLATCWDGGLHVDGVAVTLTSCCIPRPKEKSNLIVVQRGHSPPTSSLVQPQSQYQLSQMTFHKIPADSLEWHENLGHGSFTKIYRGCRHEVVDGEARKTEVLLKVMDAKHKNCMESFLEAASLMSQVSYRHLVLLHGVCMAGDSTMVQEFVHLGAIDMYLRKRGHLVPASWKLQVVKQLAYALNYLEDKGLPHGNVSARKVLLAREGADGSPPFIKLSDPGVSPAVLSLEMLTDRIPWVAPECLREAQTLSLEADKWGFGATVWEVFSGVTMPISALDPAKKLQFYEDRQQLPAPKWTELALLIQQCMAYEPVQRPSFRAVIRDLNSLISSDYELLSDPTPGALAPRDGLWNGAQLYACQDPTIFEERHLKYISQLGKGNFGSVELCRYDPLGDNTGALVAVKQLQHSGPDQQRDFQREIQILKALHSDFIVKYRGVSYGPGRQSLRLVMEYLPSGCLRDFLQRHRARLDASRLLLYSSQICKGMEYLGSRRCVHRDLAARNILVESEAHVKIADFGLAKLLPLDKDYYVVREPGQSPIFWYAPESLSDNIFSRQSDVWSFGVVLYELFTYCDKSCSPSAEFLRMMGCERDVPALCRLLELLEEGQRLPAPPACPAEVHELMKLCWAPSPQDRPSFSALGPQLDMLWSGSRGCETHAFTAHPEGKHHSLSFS
# Description: (§1) Determination of the Effect of the Compounds According to the Invention on Janus Kinases (JAK Family) in Kinobeads™ Assays with Immunodetection of Kinases
# (§2) The compounds of the present invention as described in the previous examples were tested in a Kinobeads™ assay as described for ZAP-70 (WO-A 2007/137867). Briefly, test compounds (at various concentrations) and the affinity matrix with the immobilized aminopyrido-pyrimidine ligand 24 were added to cell lysate aliquots and allowed to bind to the proteins in the lysate sample. After the incubation time the beads with captured proteins were separated from the lysate. Bound proteins were then eluted and the presence of JAK1, JAK2, JAK3 and TYK2 was detected and quantified using specific antibodies in a dot blot procedure and the Odyssey infrared detection system. Dose response curves for individual kinases were generated and IC50 values calculated. Kinobeads™ assays for ZAP-70 (WO-A 2007/137867) and for kinase selectivity profiling (WO-A 2006/134056) have been previously described.
# (§3) The affinity matrix was washed two times with 15 mL of 1×DP buffer containing 0.2% NP40 (IGEPAL® CA-630, Sigma, #13021) and then resuspended in 1×DP buffer containing 0.2% NP40 (3% beads slurry).
# (§4) 5×DP buffer: 250 mM Tris-HCl pH 7.4, 25% Glycerol, 7.5 mM MgCl2, 750 mM NaCl, 5 mM Na3VO4; filter the 5×DP buffer through a 0.22 μm filter and store in aliquots at −80° C. The 5×DP buffer is diluted with H2O to 1×DP buffer containing 1 mM DTT and 25 mM NaF.
# (§5) Stock solutions of test compounds were prepared in DMSO. In a 96 well plate 30 μL solution of diluted test compounds at 5 mM in DMSO were prepared. Starting with this solution a 1:3 dilution series (9 steps) was prepared. For control experiments (no test compound) a buffer containing 2% DMSO was used.
# (§6) Molt4 cells (ATCC catalogue number CRL-1582) and Ramos cells (ATCC catalogue number CRL-1596) were grown in 1 L Spinner flasks (Integra Biosciences, #182101) in suspension in RPMI 1640 medium (Invitrogen, #21875-034) supplemented with 10% Fetal Bovine Serum (Invitrogen) at a density between 0.15×10^6 and 1.2×10^6 cells/mL. Cells were harvested by centrifugation, washed once with 1×PBS buffer (Invitrogen, #14190-094) and cell pellets were frozen in liquid nitrogen and subsequently stored at −80° C. Cells were homogenized in a Potter S homogenizer in lysis buffer: 50 mM Tris-HCl, 0.8% NP40, 5% glycerol, 150 mM NaCl, 1.5 mM MgCl2, 25 mM NaF, 1 mM sodium vanadate, 1 mM DTT, pH 7.5. One complete EDTA-free tablet (protease inhibitor cocktail, Roche Diagnostics, 1873580) per 25 ml, buffer was added. The material was dounced 10 times using a mechanized POTTER S, transferred to 50 mL falcon tubes, incubated for 30 minutes on ice and spun down for 10 minutes at 20,000 g at 4° C. (10,000 rpm in Sorvall SLA600, precooled). The supernatant was transferred to an ultracentrifuge (UZ)-polycarbonate tube (Beckmann, 355654) and spun for 1 hour at 100.000 g at 4° C. (33.500 rpm in Ti50.2, precooled). The supernatant was transferred again to a fresh 50 mL falcon tube, the protein concentration was determined by a Bradford assay (BioRad) and samples containing 50 mg of protein per aliquot were prepared. The samples were immediately used for experiments or frozen in liquid nitrogen and stored frozen at −80° C.
# (§7) Cell lysate (approximately 50 mg protein per plate) was thawed in a water bath at room temperature and then stored on ice. To the thawed cell lysate 1×DP 0.8% NP40 buffer containing protease inhibitors (1 tablet for 25 mL buffer; EDTA-free protease inhibitor cocktail; Roche Diagnostics 1873580) was added in order to reach a final protein concentration of 10 mg/mL total protein. The diluted cell lysate was stored on ice. Mixed Molt4/Ramos lysate was prepared by combining one volume of Molt4 lysate and two volumes of Ramos lysate (ratio 1:2). […]
# [2] = biological target: T2, JAK1 (Homo sapiens, UniProt P23458); assay: Kinobeads assay with immunodetection, JAK1; conditions: for IC50: Kinobeads assay, mixed Molt4/Ramos lysate, read-out: Inhibition values (IC50) JAK1
# T2 construct: endogenous in cells; host or cells: Molt4 (ATCC CRL-1582) and Ramos (ATCC CRL-1596) cells; mixed lysate 1:2
# T2 sequence (P23458 whole entry): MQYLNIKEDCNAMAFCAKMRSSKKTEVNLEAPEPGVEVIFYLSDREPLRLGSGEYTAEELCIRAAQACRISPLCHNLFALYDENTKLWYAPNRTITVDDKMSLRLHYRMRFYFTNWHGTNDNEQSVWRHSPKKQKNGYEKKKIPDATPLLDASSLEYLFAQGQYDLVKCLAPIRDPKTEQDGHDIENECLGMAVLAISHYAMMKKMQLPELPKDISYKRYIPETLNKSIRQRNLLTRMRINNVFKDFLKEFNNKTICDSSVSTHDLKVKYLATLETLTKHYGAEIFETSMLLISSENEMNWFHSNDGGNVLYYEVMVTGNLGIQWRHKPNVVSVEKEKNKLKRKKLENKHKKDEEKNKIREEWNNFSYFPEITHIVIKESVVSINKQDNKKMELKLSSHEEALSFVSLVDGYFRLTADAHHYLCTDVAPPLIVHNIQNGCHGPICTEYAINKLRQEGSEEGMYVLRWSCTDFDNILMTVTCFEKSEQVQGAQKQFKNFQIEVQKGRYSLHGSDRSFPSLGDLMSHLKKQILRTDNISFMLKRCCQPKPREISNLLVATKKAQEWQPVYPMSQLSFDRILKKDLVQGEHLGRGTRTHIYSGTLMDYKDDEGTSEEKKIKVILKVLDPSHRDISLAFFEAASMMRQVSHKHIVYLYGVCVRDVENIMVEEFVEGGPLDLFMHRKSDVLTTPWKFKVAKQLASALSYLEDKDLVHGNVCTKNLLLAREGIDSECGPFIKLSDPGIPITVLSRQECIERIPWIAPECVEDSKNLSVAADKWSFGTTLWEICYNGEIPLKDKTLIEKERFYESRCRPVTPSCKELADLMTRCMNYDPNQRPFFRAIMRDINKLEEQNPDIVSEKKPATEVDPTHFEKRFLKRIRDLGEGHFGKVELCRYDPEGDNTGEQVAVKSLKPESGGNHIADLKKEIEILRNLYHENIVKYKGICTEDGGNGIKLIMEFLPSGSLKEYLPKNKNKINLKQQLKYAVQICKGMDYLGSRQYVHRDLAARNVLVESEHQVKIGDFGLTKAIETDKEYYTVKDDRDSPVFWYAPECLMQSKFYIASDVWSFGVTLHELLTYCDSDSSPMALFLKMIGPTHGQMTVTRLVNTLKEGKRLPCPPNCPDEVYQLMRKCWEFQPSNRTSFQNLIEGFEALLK
# Description: as §1, §2, §3, §4, §5, §6, §7
# [3] = biological target: T3, JAK2 (Homo sapiens, UniProt O60674); assay: Kinobeads assay with immunodetection, JAK2; conditions: mixed Molt4/Ramos lysate, read-out: Inhibition values (IC50) JAK2
# T3 construct: endogenous in cells; host or cells: Molt4 (ATCC CRL-1582) and Ramos (ATCC CRL-1596) cells; mixed lysate 1:2
# T3 sequence (O60674 whole entry): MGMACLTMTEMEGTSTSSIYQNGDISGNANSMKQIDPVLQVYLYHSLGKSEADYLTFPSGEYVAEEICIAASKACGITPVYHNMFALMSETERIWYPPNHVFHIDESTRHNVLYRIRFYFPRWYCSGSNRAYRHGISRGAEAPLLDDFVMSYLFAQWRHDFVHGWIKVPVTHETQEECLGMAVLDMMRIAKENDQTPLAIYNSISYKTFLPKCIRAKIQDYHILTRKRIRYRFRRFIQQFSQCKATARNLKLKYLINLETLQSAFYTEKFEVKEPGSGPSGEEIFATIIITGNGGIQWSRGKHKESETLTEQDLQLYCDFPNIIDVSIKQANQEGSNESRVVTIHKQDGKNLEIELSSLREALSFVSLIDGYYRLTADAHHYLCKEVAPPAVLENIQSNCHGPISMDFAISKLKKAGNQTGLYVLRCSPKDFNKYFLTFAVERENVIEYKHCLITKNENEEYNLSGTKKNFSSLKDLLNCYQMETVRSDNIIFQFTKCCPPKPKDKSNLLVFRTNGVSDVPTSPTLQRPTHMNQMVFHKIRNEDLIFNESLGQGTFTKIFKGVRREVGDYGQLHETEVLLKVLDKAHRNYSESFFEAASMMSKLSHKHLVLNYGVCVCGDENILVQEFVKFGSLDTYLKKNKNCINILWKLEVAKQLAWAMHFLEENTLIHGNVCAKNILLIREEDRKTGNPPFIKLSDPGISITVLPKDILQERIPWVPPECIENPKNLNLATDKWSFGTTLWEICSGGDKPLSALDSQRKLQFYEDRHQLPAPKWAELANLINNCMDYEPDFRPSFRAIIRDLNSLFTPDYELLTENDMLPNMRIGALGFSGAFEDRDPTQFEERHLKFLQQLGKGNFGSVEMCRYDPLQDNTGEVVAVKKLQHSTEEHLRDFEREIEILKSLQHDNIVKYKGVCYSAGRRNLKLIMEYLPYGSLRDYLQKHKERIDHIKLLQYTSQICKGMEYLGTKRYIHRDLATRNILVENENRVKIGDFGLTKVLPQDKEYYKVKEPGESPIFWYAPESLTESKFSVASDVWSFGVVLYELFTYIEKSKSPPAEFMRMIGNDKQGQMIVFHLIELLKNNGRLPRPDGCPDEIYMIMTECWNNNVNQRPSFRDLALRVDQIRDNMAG
# Description: as §1, §2, §3, §4, §5, §6, §7
# [4] = biological target: T4, TYK2 (Homo sapiens, UniProt P29597); assay: Kinobeads assay with immunodetection, TYK2; conditions: for IC50: Kinobeads assay, mixed Molt4/Ramos lysate, read-out: Inhibition values (IC50) Tyk2
# T4 construct: endogenous in cells; host or cells: Molt4 (ATCC CRL-1582) and Ramos (ATCC CRL-1596) cells; mixed lysate 1:2
# T4 sequence (P29597 whole entry): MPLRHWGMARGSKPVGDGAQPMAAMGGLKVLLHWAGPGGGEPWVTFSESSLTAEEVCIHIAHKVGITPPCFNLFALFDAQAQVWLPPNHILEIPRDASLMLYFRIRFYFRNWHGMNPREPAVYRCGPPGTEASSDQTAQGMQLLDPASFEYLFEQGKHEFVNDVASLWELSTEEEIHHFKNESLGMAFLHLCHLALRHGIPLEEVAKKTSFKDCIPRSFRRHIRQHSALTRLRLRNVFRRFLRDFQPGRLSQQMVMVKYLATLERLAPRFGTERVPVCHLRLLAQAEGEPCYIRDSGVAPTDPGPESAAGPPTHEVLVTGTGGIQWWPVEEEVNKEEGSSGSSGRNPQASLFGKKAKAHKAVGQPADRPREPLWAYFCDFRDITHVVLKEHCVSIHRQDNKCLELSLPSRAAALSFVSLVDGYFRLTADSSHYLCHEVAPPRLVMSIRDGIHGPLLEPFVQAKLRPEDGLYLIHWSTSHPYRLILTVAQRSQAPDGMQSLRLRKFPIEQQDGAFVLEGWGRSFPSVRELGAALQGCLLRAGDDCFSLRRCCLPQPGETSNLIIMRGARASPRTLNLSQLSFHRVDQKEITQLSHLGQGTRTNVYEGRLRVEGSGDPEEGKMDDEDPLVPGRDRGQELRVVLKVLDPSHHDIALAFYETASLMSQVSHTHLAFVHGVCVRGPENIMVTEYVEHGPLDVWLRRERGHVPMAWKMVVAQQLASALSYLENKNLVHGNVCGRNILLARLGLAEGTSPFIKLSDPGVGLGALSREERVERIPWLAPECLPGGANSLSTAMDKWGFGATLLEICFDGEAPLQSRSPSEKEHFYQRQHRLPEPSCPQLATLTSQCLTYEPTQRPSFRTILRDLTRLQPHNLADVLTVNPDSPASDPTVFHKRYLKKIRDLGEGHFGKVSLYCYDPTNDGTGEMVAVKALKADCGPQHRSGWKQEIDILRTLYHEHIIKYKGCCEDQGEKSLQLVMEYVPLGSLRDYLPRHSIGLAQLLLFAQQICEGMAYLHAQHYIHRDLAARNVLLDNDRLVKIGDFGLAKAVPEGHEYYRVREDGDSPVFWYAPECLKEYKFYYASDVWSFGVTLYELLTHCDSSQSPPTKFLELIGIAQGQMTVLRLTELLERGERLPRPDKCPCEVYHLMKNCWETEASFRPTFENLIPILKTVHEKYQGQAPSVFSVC
# Description: as §1, §2, §3, §4, §5, §6, §7
Compound,IC50 [1],"Selectivity ratio over JAK2, JAK1 [2]",IC50 [2],IC50 [3],IC50 [4],"Selectivity ratio over JAK2, Tyk2 ([4]; Tyk2 over JAK2)","Selectivity ratio over JAK2, JAK3 [1]"
"CC(=O)N1CC[C@@H](CNc2nc(Nc3cnn(CCO)c3)ncc2Cl)C1 [Example 27, (S)-1-(3-(((5-chloro-2-((1-(2-hydroxyethyl)-1H-pyrazol-4-yl)amino)pyrimidin-4-yl)amino)methyl)pyrrolidin-1-yl)ethanone]",100 to 1000 nM,JAK1 = 23,100 to 1000 nM,1000 to 10000 nM,100 to 1000 nM,,
"Cn1cc(Nc2ncc(Cl)c(NC[C@@H]3CCN(S(C)(=O)=O)C3)n2)cn1 [Example 30, (S)-5-chloro-N^2-(1-methyl-1H-pyrazol-4-yl)-N^4-((1-(methylsulfonyl)pyrrolidin-3-yl)methyl)pyrimidine-2,4-diamine]",100 to 1000 nM,,1000 to 10000 nM,1000 to 10000 nM,100 to 1000 nM,Tyk2 = 9,
"CC(=O)N1CCCC[C@H]1CNc1nc(Nc2cnn(C)c2)ncc1Cl [Example 32, (S)-1-(2-(((5-chloro-2-((1-methyl-1H-pyrazol-4-yl)amino)pyrimidin-4-yl)amino)methyl)piperidin-1-yl)ethanone]",1000 to 10000 nM,,1000 to 10000 nM,> 10000 nM,1000 to 10000 nM,,
"CS(=O)(=O)N1CCCC[C@H]1CNc1nc(Nc2cnn(CCO)c2)ncc1Cl [Example 37, (S)-2-(4-((5-chloro-4-(((1-(methylsulfonyl)piperidin-2-yl)methyl)amino)pyrimidin-2-yl)amino)-1H-pyrazol-1-yl)ethanol]",< 100 nM,,< 100 nM,1000 to 10000 nM,100 to 1000 nM,,JAK3 = 64
"C=CS(=O)(=O)N1CCCC[C@H]1CNc1nc(Nc2cnn(C)c2)ncc1Cl [Example 38, (S)-5-chloro-N^2-(1-methyl-1H-pyrazol-4-yl)-N^4-((1-(vinylsulfonyl)piperidin-2-yl)methyl)pyrimidine-2,4-diamine]",< 100 nM,,100 to 1000 nM,1000 to 10000 nM,100 to 1000 nM,,JAK3 = 57

# Further lines, results first:
IC50 [1],"Selectivity ratio over JAK2, JAK1 [2]",IC50 [2],IC50 [3],IC50 [4],"Selectivity ratio over JAK2, Tyk2 ([4]; Tyk2 over JAK2)","Selectivity ratio over JAK2, JAK3 [1]",Compound
1000 to 10000 nM,JAK1 = 9,100 to 1000 nM,1000 to 10000 nM,100 to 1000 nM,,,"CC(=O)N1CC[C@@H](CNc2nc(Nc3cnn(C)c3)ncc2Cl)C1 [Example 26, (S)-1-(3-(((5-chloro-2-((1-methyl-1H-pyrazol-4-yl)amino)pyrimidin-4-yl)amino)methyl)pyrrolidin-1-yl)ethanone]"
100 to 1000 nM,,1000 to 10000 nM,> 10000 nM,1000 to 10000 nM,,,"C=CC(=O)N1CC[C@@H](CNc2nc(Nc3cnn(C)c3)ncc2Cl)C1 [Example 28, (S)-1-(3-(((5-chloro-2-((1-methyl-1H-pyrazol-4-yl)amino)pyrimidin-4-yl)amino)methyl)pyrrolidin-1-yl)prop-2-en-1-one]"
100 to 1000 nM,,100 to 1000 nM,> 10000 nM,1000 to 10000 nM,,,"C=CC(=O)N1CC[C@@H](CNc2nc(Nc3cnn(CCO)c3)ncc2Cl)C1 [Example 29, (S)-1-(3-(((5-chloro-2-((1-(2-hydroxyethyl)-1H-pyrazol-4-yl)amino)pyrimidin-4-yl)amino)methyl)pyrrolidin-1-yl)prop-2-en-1-one]"
< 100 nM,,100 to 1000 nM,1000 to 10000 nM,100 to 1000 nM,,JAK3 = 190,"C=CS(=O)(=O)N1CC[C@@H](CNc2nc(Nc3cnn(C)c3)ncc2Cl)C1 [Example 31, (S)-5-chloro-N^2-(1-methyl-1H-pyrazol-4-yl)-N^4-((1-(vinylsulfonyl)pyrrolidin-3-yl)methyl)pyrimidine-2,4-diamine]"
100 to 1000 nM,JAK1 = 20,1000 to 10000 nM,> 10000 nM,1000 to 10000 nM,,,"CC(=O)N1CCCC[C@H]1CNc1nc(Nc2cnn(CCO)c2)ncc1Cl [Example 33, (S)-1-(2-(((5-chloro-2-((1-(2-hydroxyethyl)-1H-pyrazol-4-yl)amino)pyrimidin-4-yl)amino)methyl)piperidin-1-yl)ethanone]"
1000 to 10000 nM,,100 to 1000 nM,> 10000 nM,1000 to 10000 nM,,,"C=CC(=O)N1CCCC[C@H]1CNc1nc(Nc2cnn(C)c2)ncc1Cl [Example 34, (S)-1-(2-(((5-chloro-2-((1-methyl-1H-pyrazol-4-yl)amino)pyrimidin-4-yl)amino)methyl)piperidin-1-yl)prop-2-en-1-one]"
1000 to 10000 nM,,100 to 1000 nM,> 10000 nM,1000 to 10000 nM,,,"C=CC(=O)N1CCCC[C@H]1CNc1nc(Nc2cnn(CCO)c2)ncc1Cl [Example 35, (S)-1-(2-(((5-chloro-2-((1-(2-hydroxyethyl)-1H-pyrazol-4-yl)amino)pyrimidin-4-yl)amino)methyl)piperidin-1-yl)prop-2-en-1-one]"
100 to 1000 nM,,< 100 nM,1000 to 10000 nM,100 to 1000 nM,,JAK3 = 54,"Cn1cc(Nc2ncc(Cl)c(NC[C@@H]3CCCCN3S(C)(=O)=O)n2)cn1 [Example 36, (S)-5-chloro-N^2-(1-methyl-1H-pyrazol-4-yl)-N^4-((1-(methylsulfonyl)piperidin-2-yl)methyl)pyrimidine-2,4-diamine]"
